# Experimental data taken from patent publication US6555528B2 (Board of Supervisors of Louisiana State University and …, priority 1999, dated 2003).
# Read-outs that look alike come from different tables or passages of the source.
# Assays:
# [1] = target: T1, biotin carboxylase from Escherichia coli (Escherichia coli, UniProt P24182); assay: Biotin carboxylase inhibition assay (spectrophotometric, ADP production coupled to pyruvate kinase/lactate dehydrogenase); format: biochemical
# T1 construct: histidine-tag (N); made in house; host or cells: E. coli BL21(DE3)pLysS
# Procedure: It catalyzes the first partial reaction shown above as reaction (1). […] See S. Li et al., J. Biol. Chem., vol. 267, 855-863 (1992); and H. Kondo et al., Proc. Natl. Acad. Sci. USA, vol. 88, pp. 9730-9733 (1991).
# Purification was performed with a histidine-tag attached to the amino terminus of a mutant form of the enzyme and nickel affinity chromatography as described in C. […] 38, pp. 3393-3400 (1999).
# The amount of ADP was determined using pyruvate kinase and lactate dehydrogenase, and the oxidation of NADH was followed at 340 nm. Each measurement was carried out in a volume of 0.5 ml in 1 cm path length quartz cuvettes. The reaction mixture contained 10 units of pyruvate kinase, 18 units of lactate dehydrogenase, 0.5 mM phosphoenolpyruvate, 0.2 mM NADH, 8 mM MgCl2 and 100 mM HEPES at pH 8.0. For inhibition studies compound 1 was dissolved in water, and the pH adjusted to 8 with HCl. The concentration of compound 1 was assayed by phosphorus analysis using the method of B. Ames et al., J. Biol. Chem., vol. 235, pp. 769-775 (1960).
# [2] = Water solubility (observation at synthesis); format: physicochemical
smiles,measurement,setting,value
"O=C(O)CCCCC1SCC2C1NC(=O)N2C(=O)CP(=O)(O)O (stereo not drawn) [Compound 1, 5-(6,8-Diaza-7-oxo-6-(2-phosphonoacetyl)-3-thiabicyclo[3.3.0] Oct-2-yl) pentanoic acid]",Ki,"[1]; competitive inhibition versus ATP, read-out: slope inhibition constant",8 mM
same,Ki,"[1]; preliminary characterization, 9 mM bicarbonate, 0.1 mM ATP, 100 mM biotin, pH 8.0, read-out: inhibition constant",~8 mM
same,water solubility,[2],water soluble
O=C(O)CP(=O)(O)O [Phosphonoacetate],type of inhibition versus ATP,[1]; versus ATP,competitve inhibition
same,type of inhibition versus bicarbonate,[1]; versus bicarbonate,noncompetitve inhibition
O=C(O)CCCC[C@@H]1SC[C@@H]2NC(=O)N[C@@H]21 [biotin],substrate inhibition of biotin carboxylase,[1]; biotin as substrate,noncompetitive substrate inhibitor
